Results reported in the NIST ThermoML archive (doi:10.1021/je900916e).
Numbers after ± are expanded uncertainties.

Experiment: cn = amount concentration of the nth substance listed, in mol/dm3
Conditions: 101 kPa, Liquid, Advanced Conductivity Orion 162A

C[N+](C)(C)C.O=C([O-])C(F)(F)C(F)(F)C(F)(F)C(F)(F)C(F)(F)C(F)(F)C(F)(F)F [tetramethylammonium perfluorooctanoate] + O
electrical conductivity (303.15 K, c1 = 0.01379): 0.0823 ± 0.00016 S/m
electrical conductivity (303.15 K, c1 = 0.01477): 0.0844 ± 0.00017 S/m
electrical conductivity (303.15 K, c1 = 0.01573): 0.0864 ± 0.00017 S/m
electrical conductivity (303.15 K, c1 = 0.01667): 0.0884 ± 0.00018 S/m
electrical conductivity (303.15 K, c1 = 0.01803): 0.0912 ± 0.00018 S/m
electrical conductivity (303.15 K, c1 = 0.01935): 0.0938 ± 0.00019 S/m
electrical conductivity (303.15 K, c1 = 0.02063): 0.0964 ± 0.00019 S/m
electrical conductivity (303.15 K, c1 = 0.02187): 0.0988 ± 0.0002 S/m
electrical conductivity (303.15 K, c1 = 0.02347): 0.1017 ± 0.0002 S/m
electrical conductivity (303.15 K, c1 = 0.025): 0.1045 ± 0.00021 S/m
electrical conductivity (308.15 K, c1 = 0.001316): 0.01109 ± 2e-05 S/m
electrical conductivity (308.15 K, c1 = 0.002597): 0.0209 ± 4e-05 S/m
electrical conductivity (308.15 K, c1 = 0.003846): 0.0302 ± 6e-05 S/m
electrical conductivity (308.15 K, c1 = 0.005063): 0.0388 ± 8e-05 S/m
electrical conductivity (308.15 K, c1 = 0.00625): 0.0475 ± 0.0001 S/m
electrical conductivity (308.15 K, c1 = 0.007407): 0.0554 ± 0.00011 S/m
electrical conductivity (308.15 K, c1 = 0.008536): 0.0626 ± 0.00013 S/m
electrical conductivity (308.15 K, c1 = 0.009638): 0.07 ± 0.00014 S/m
electrical conductivity (308.15 K, c1 = 0.01071): 0.077 ± 0.00015 S/m
electrical conductivity (308.15 K, c1 = 0.01176): 0.0828 ± 0.00017 S/m
electrical conductivity (308.15 K, c1 = 0.01279): 0.0888 ± 0.00018 S/m
electrical conductivity (308.15 K, c1 = 0.01379): 0.0918 ± 0.00018 S/m
electrical conductivity (308.15 K, c1 = 0.01477): 0.095 ± 0.00019 S/m
electrical conductivity (308.15 K, c1 = 0.01573): 0.0969 ± 0.00019 S/m
electrical conductivity (308.15 K, c1 = 0.01667): 0.0996 ± 0.0002 S/m
electrical conductivity (308.15 K, c1 = 0.01758): 0.101 ± 0.0002 S/m
electrical conductivity (308.15 K, c1 = 0.01848): 0.1029 ± 0.00021 S/m
electrical conductivity (308.15 K, c1 = 0.02021): 0.1067 ± 0.00021 S/m
electrical conductivity (308.15 K, c1 = 0.02188): 0.1102 ± 0.00022 S/m
electrical conductivity (308.15 K, c1 = 0.02347): 0.1136 ± 0.00023 S/m
electrical conductivity (308.15 K, c1 = 0.025): 0.1168 ± 0.00023 S/m
electrical conductivity (308.15 K, c1 = 0.02647): 0.1208 ± 0.00024 S/m
electrical conductivity (313.15 K, c1 = 0.001316): 0.01241 ± 3e-05 S/m
electrical conductivity (313.15 K, c1 = 0.002597): 0.0231 ± 5e-05 S/m
electrical conductivity (313.15 K, c1 = 0.003846): 0.0333 ± 7e-05 S/m
electrical conductivity (313.15 K, c1 = 0.005063): 0.0428 ± 9e-05 S/m
electrical conductivity (313.15 K, c1 = 0.00625): 0.0521 ± 0.0001 S/m
electrical conductivity (313.15 K, c1 = 0.007407): 0.0608 ± 0.00012 S/m
electrical conductivity (313.15 K, c1 = 0.008537): 0.0687 ± 0.00014 S/m
electrical conductivity (313.15 K, c1 = 0.009638): 0.0765 ± 0.00015 S/m
electrical conductivity (313.15 K, c1 = 0.01071): 0.0841 ± 0.00017 S/m
electrical conductivity (313.15 K, c1 = 0.01176): 0.0905 ± 0.00018 S/m
electrical conductivity (313.15 K, c1 = 0.01279): 0.0971 ± 0.00019 S/m
electrical conductivity (313.15 K, c1 = 0.01379): 0.1009 ± 0.0002 S/m
electrical conductivity (313.15 K, c1 = 0.01477): 0.1039 ± 0.00021 S/m
electrical conductivity (313.15 K, c1 = 0.01573): 0.1067 ± 0.00021 S/m
electrical conductivity (313.15 K, c1 = 0.01667): 0.1091 ± 0.00022 S/m
electrical conductivity (313.15 K, c1 = 0.01803): 0.1125 ± 0.00023 S/m
electrical conductivity (313.15 K, c1 = 0.01935): 0.1158 ± 0.00023 S/m
electrical conductivity (313.15 K, c1 = 0.02063): 0.119 ± 0.00024 S/m
electrical conductivity (313.15 K, c1 = 0.02187): 0.122 ± 0.00024 S/m
electrical conductivity (313.15 K, c1 = 0.02347): 0.1258 ± 0.00025 S/m
electrical conductivity (313.15 K, c1 = 0.025): 0.1294 ± 0.00026 S/m
electrical conductivity (318.15 K, c1 = 0.001316): 0.01322 ± 3e-05 S/m
electrical conductivity (318.15 K, c1 = 0.002597): 0.0253 ± 5e-05 S/m
electrical conductivity (318.15 K, c1 = 0.003846): 0.0367 ± 7e-05 S/m
electrical conductivity (318.15 K, c1 = 0.005063): 0.0466 ± 9e-05 S/m
electrical conductivity (318.15 K, c1 = 0.00625): 0.0564 ± 0.00011 S/m
electrical conductivity (318.15 K, c1 = 0.007407): 0.0659 ± 0.00013 S/m
electrical conductivity (318.15 K, c1 = 0.008536): 0.0745 ± 0.00015 S/m
electrical conductivity (318.15 K, c1 = 0.009638): 0.0838 ± 0.00017 S/m
electrical conductivity (318.15 K, c1 = 0.01071): 0.0921 ± 0.00018 S/m
electrical conductivity (318.15 K, c1 = 0.01176): 0.0993 ± 0.0002 S/m
electrical conductivity (318.15 K, c1 = 0.01279): 0.1064 ± 0.00021 S/m
electrical conductivity (318.15 K, c1 = 0.01379): 0.1119 ± 0.00022 S/m
electrical conductivity (318.15 K, c1 = 0.01477): 0.1156 ± 0.00023 S/m
electrical conductivity (318.15 K, c1 = 0.01573): 0.1188 ± 0.00024 S/m
electrical conductivity (318.15 K, c1 = 0.01667): 0.1218 ± 0.00024 S/m
electrical conductivity (318.15 K, c1 = 0.01803): 0.1263 ± 0.00025 S/m
electrical conductivity (318.15 K, c1 = 0.01935): 0.1307 ± 0.00026 S/m
electrical conductivity (318.15 K, c1 = 0.02105): 0.1349 ± 0.00027 S/m
electrical conductivity (318.15 K, c1 = 0.02268): 0.14 ± 0.00028 S/m
electrical conductivity (318.15 K, c1 = 0.02424): 0.1434 ± 0.00029 S/m
electrical conductivity (318.15 K, c1 = 0.02574): 0.1473 ± 0.00029 S/m
